Measured values reported in patent US10894014B2, “Orodispersible tablet containing Estetrol” (ESTETRA SPRL, priority 2015, dated 2021).

Experiments:
production of SHBG = conditions: in vitro; cited from earlier work
[1] = system: vagina, uterus, body weight, bone mass, bone strength, hot flushes, ovulation; conditions: dose-dependent; cited from earlier work
estrogen receptors = conditions: in vitro; cited from earlier work
DMBA mammary tumour = conditions: extent and dose level similar to tamoxifen and to ovariectomy; cited from earlier work
[2] = system: human breast cancer cells; conditions: in vitro; cited from earlier work
[3] = humans, cited from earlier work
[4] = target: T1, sex hormone binding globulin (SHBG) (Homo sapiens, UniProt P04278); conditions: in vitro; cited from earlier work
T1 sequence (P04278 30-402): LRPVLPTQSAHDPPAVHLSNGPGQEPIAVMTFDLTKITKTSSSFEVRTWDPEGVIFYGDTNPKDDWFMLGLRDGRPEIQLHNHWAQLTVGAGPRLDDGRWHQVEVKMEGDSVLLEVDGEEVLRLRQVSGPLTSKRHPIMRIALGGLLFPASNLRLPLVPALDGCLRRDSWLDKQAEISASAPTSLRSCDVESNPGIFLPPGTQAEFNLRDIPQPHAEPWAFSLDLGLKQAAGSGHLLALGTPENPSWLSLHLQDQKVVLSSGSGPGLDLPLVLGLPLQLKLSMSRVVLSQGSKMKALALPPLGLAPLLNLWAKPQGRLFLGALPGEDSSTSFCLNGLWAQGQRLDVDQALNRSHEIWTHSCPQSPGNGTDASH

[5] = Randomized, open-label, two-period, cross-over pharmacokinetic study, sublingual vs oral estetrol tablet; type: in vivo, healthy female volunteers; conditions: 10 mg estetrol sublingual vs oral tablet
Experimental: A randomized, open-label, two-period, cross-over, pharmacokinetic study is conducted to compare sublingual bioavailability of 10 mg estetrol administered in one 80 mg tablet with oral availability of estetrol contained in a 83 mg tablet containing 10 mg estetrol. These tablets are administered sublingually and orally to healthy female volunteers under fasting conditions.
Ten healthy female subjects are selected on the basis of the following criteria: age of 45-65 years (inclusive), nonsmokers or past smokers (at least 6 months before dosing), body-mass index (BMI)=18.5 to 30 kg/m^2 (inclusive at the time of the screening).
At the start of the first and the second period of the study, between 07:00 am and 07:28 am, 5 subjects receive a single dose of the sublingual formulation of estetrol by administering one estetrol tablet (tablet weight 80 mg; 10 mg estetrol) and 5 subjects receive a single oral dose of the oral estetrol formulation by administering one estetrol tablet (tablet weight 83 mg; 10 mg estetrol), ingested together with 200 ml water. […]
The estetrol concentration in the collected blood samples is determined by means of HPLC/MS/MS. The concentrations of glucuronided estetrol (D-ring) in the urine samples is also determined with the help of HPLC/MS/MS.

Structure (SMILES): C[C@]12CC[C@@H]3c4ccc(O)cc4CC[C@H]3[C@@H]1[C@@H](O)[C@@H](O)[C@@H]2O [estetrol, 1,3,5 (10)-estratrien-3,15α,16α,17β-tetrol]
- stimulation of production of SHBG (production of SHBG): does not stimulate
- estrogenic effects in rat models [1]: estrogenic effects on the vagina, the uterus (both myometrium and endometrium), body weight, bone mass, bone strength, hot flushes and on ovulation (inhibition)
- binding to estrogen receptors, selectivity (estrogen receptors): binds highly selective to the estrogen receptors with preference for the ERα form
- tumour development (DMBA mammary tumour): prevented tumour development
- effect in the presence of 17β-estradiol [2]: anti-estrogenic effect
- oral bioavailability ([3]; oral): high and dose-proportional
- terminal elimination half-life [3]: about 28 hours
- binding to SHBG [4]: does not bind
- impact on a liver function parameter [5]: less impact on a liver function parameter
